Results from US6355799B1, “Substituted benzene compounds, process for their preparation, and herbicidal and defoliant compositions containing them” (ISK Americas Incorporated, priority 1997, dated 2002).

What was measured:
Assay type in all cases: in vivo
[1] = test system: redroot pigweed (Amaranthus retroflexus, AMARE); assay: Pre-emerge test, greenhouse herbicide activity screening; conditions: for Pre-emerge Herbicidal Activity AMARE: phytotoxicity rating 0-100, 14 days after application; for phytotoxicity rating AMARE: pre-emerge, 14 days after application, scale 0-100
Procedure, shortened: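 Compounds in acetone were track-sprayed at 15-1000 g ai/ha (187 l/ha) on sandy loam pots: pre-emerge one day after seeding, post-emerge at 2-3 leaf stage with 0.25% v/v non-ionic surfactant. Phytotoxicity was rated 14 days later on a 0 (no damage) to 100 (complete death) scale.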

[2] = test system: barnyardgrass (Echinochloa crus-galli, ECHCG); assay: as above; conditions: for Pre-emerge Herbicidal Activity ECHCG: phytotoxicity rating 0-100, 14 days after application; for phytotoxicity rating ECHCG: pre-emerge, 14 days after application, scale 0-100
Procedure, shortened: (§1)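 Fourteen days after spraying, crop and weed injury was graded visually from 0, no effect, to 100, every plant dead. Test substances were dissolved in acetone and applied at 15–1000 g ai/ha with a flat-fan nozzle. Application was either pre-emergence, one day after sowing, or post-emergence at the 2–3 leaf stage.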

[3] = test system: green foxtail (Setaria viridis, SETVI); assay: as above; conditions: for Pre-emerge Herbicidal Activity SETVI: phytotoxicity rating 0-100, 14 days after application; for phytotoxicity rating SETVI: pre-emerge, 14 days after application, scale 0-100
Procedure, shortened: as §1

[4] = test system: ivyleaf morningglory (Ipomoea hederacea, IPOHE); assay: as above; conditions: for Pre-emerge Herbicidal Activity IPOHE: phytotoxicity rating 0-100, 14 days after application; for phytotoxicity rating IPOHE: pre-emerge, 14 days after application, scale 0-100
Procedure, shortened: as §1

[5] = test system: johnsongrass (Sorghum halepense, SORHA); assay: as above; conditions: for Pre-emerge Herbicidal Activity SORHA: phytotoxicity rating 0-100, 14 days after application; for phytotoxicity rating SORHA: pre-emerge, 14 days after application, scale 0-100
Procedure, shortened: as §1

[6] = test system: lambsquarters (Chenopodium album, CHEAL); assay: as above; conditions: for Pre-emerge Herbicidal Activity CHEAL: phytotoxicity rating 0-100, 14 days after application; for phytotoxicity rating CHEAL: pre-emerge, 14 days after application, scale 0-100
Procedure, shortened: as §1

[7] = test system: large crabgrass (Digitaria sanguinalis, DIGSA); assay: as above; conditions: for Pre-emerge Herbicidal Activity DIGSA: phytotoxicity rating 0-100, 14 days after application; for phytotoxicity rating DIGSA: pre-emerge, 14 days after application, scale 0-100
Procedure, shortened: as §1

[8] = test system: sicklepod (Cassia obtusifolia, CASOB); assay: as above; conditions: for Pre-emerge Herbicidal Activity CASOB: phytotoxicity rating 0-100, 14 days after application; for phytotoxicity rating CASOB: pre-emerge, 14 days after application, scale 0-100
Procedure, shortened: as §1

[9] = test system: velvetleaf (Abutilon theophrasti, ABUTH); assay: as above; conditions: for Pre-emerge Herbicidal Activity ABUTH: phytotoxicity rating 0-100, 14 days after application; for phytotoxicity rating ABUTH: pre-emerge, 14 days after application, scale 0-100
Procedure, shortened: as §1

[10] = test system: field corn (Zea mays L., var. Dekalb 535, CORN); assay: Pre-emerge test, crop safety; conditions: for Pre-emerge Herbicidal Activity CORN: crop damage rating 0-100, 14 days after application; for phytotoxicity rating CORN (crop damage): pre-emerge, 14 days after application, scale 0-100
Procedure, shortened: (§2)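 Herbicidal damage is scored 0 (none) to 100 (complete plant death) two weeks after a simulated field spray. Rates span 15–1000 g ai/ha, delivered in acetone at 187 l/ha. For post-emergence treatments, plants have 2–3 leaves and the spray carries 0.25% v/v non-ionic surfactant.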

[11] = test system: upland rice (Oryza sp., var. Tebonnet, RICE); assay: Pre-emerge test, crop safety; conditions: for Pre-emerge Herbicidal Activity RICE: crop damage rating 0-100, 14 days after application; for phytotoxicity rating RICE (crop damage): pre-emerge, 14 days after application, scale 0-100
Procedure, shortened: as §2

[12] = test system: barnyardgrass (Echinochloa crus-galli, ECHCG); assay: Post-emerge test, greenhouse herbicide activity screening; conditions: post-emerge, 14 days after application, rating scale 0-100
Procedure, shortened: (§3)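 Compounds in acetone were track-sprayed at 15–1000 g ai/ha: pre-emergence onto soil sown the previous day, then top-watered to incorporate and later bottom-watered; post-emergence onto 2–3 leaf plants with 0.25% v/v surfactant, bottom-watered only. Ratings on a 0–100 phytotoxicity scale were taken at day 14.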

[13] = test system: green foxtail (Setaria viridis, SETVI); assay: as above; conditions: post-emerge, 14 days after application, rating scale 0-100
Procedure, shortened: as §3

[14] = test system: ivyleaf morningglory (Ipomoea hederacea, IPOHE); assay: as above; conditions: post-emerge, 14 days after application, rating scale 0-100
Procedure, shortened: as §3

[15] = test system: johnsongrass (Sorghum halepense, SORHA); assay: as above; conditions: post-emerge, 14 days after application, rating scale 0-100
Procedure, shortened: as §3

[16] = test system: lambsquarters (Chenopodium album, CHEAL); assay: as above; conditions: post-emerge, 14 days after application, rating scale 0-100
Procedure, shortened: as §3

[17] = test system: large crabgrass (Digitaria sanguinalis, DIGSA); assay: as above; conditions: post-emerge, 14 days after application, rating scale 0-100
Procedure, shortened: as §3

[18] = test system: redroot pigweed (Amaranthus retroflexus, AMARE); assay: as above; conditions: post-emerge, 14 days after application
Procedure, shortened: as §3

[19] = test system: sicklepod (Cassia obtusifolia, CASOB); assay: as above; conditions: post-emerge, 14 days after application, rating scale 0-100
Procedure, shortened: as §3

[20] = test system: velvetleaf (Abutilon theophrasti, ABUTH); assay: as above; conditions: post-emerge, 14 days after application, rating scale 0-100
Procedure, shortened: as §3

[21] = test system: field corn (Zea mays L., var. Dekalb 535, CORN); assay: Post-emerge test, crop safety; conditions: post-emerge, 14 days after application, rating scale 0-100
Procedure, shortened: as §1

[22] = test system: upland rice (Oryza sp., var. Tebonnet, RICE); assay: Post-emerge test, crop safety; conditions: post-emerge, 14 days after application, rating scale 0-100
Procedure, shortened: as §1

[23] = 250 g ai/ha, rating scale 0-100

COc1c(Cl)cc(F)c(-n2c(=O)cc(C(F)(F)F)n(C)c2=O)c1NC(=O)OCc1ccc(C)c(C)c1 [4-26]
Pre-emerge Herbicidal Activity AMARE ([1]; 63 g ai/ha): 70
Pre-emerge Herbicidal Activity AMARE ([1]; 250 g ai/ha): 100
Pre-emerge Herbicidal Activity ECHCG ([2]; 63 g ai/ha): 0
Pre-emerge Herbicidal Activity ECHCG ([2]; 250 g ai/ha): 30
Pre-emerge Herbicidal Activity SETVI ([3]; 63 g ai/ha): 75
Pre-emerge Herbicidal Activity SETVI ([3]; 250 g ai/ha): 95
Pre-emerge Herbicidal Activity IPOHE ([4]; 63 g ai/ha): 0
Pre-emerge Herbicidal Activity IPOHE ([4]; 250 g ai/ha): 10
Pre-emerge Herbicidal Activity SORHA ([5]; 63 g ai/ha): 0
Pre-emerge Herbicidal Activity SORHA ([5]; 250 g ai/ha): 20
Pre-emerge Herbicidal Activity CHEAL ([6]; 63 g ai/ha): 100
Pre-emerge Herbicidal Activity CHEAL ([6]; 250 g ai/ha): 100
Pre-emerge Herbicidal Activity DIGSA ([7]; 63 g ai/ha): 10
Pre-emerge Herbicidal Activity DIGSA ([7]; 250 g ai/ha): 90
Pre-emerge Herbicidal Activity CASOB ([8]; 63 g ai/ha): 0
Pre-emerge Herbicidal Activity CASOB ([8]; 250 g ai/ha): 0
Pre-emerge Herbicidal Activity ABUTH ([9]; 63 g ai/ha): 80
Pre-emerge Herbicidal Activity ABUTH ([9]; 250 g ai/ha): 100
Pre-emerge Herbicidal Activity CORN ([10]; 63 g ai/ha): 0
Pre-emerge Herbicidal Activity CORN ([10]; 250 g ai/ha): 0
Pre-emerge Herbicidal Activity RICE ([11]; 63 g ai/ha): 0
Pre-emerge Herbicidal Activity RICE ([11]; 250 g ai/ha): 45
phytotoxicity rating ECHCG ([12]; 63 g ai/ha): 10
phytotoxicity rating ECHCG ([12]; 250 g ai/ha): 50
phytotoxicity rating SETVI ([13]; 63 g ai/ha): 20
phytotoxicity rating SETVI ([13]; 250 g ai/ha): 60
phytotoxicity rating IPOHE ([14]; 63 g ai/ha): 100
phytotoxicity rating IPOHE ([14]; 250 g ai/ha): 100
phytotoxicity rating SORHA ([15]; 63 g ai/ha): 10
phytotoxicity rating SORHA ([15]; 250 g ai/ha): 50
phytotoxicity rating CHEAL ([16]; 63 g ai/ha): 90
phytotoxicity rating CHEAL ([16]; 250 g ai/ha): 100
phytotoxicity rating DIGSA ([17]; 63 g ai/ha): 20
phytotoxicity rating DIGSA ([17]; 250 g ai/ha): 50
phytotoxicity rating AMARE ([18]; 63 g ai/ha, rating scale 0-100 (0 no damage, 100 complete death)): 100
phytotoxicity rating AMARE [18, 23]: 100
phytotoxicity rating CASOB ([19]; 63 g ai/ha): 30
phytotoxicity rating CASOB ([19]; 250 g ai/ha): 60
phytotoxicity rating ABUTH ([20]; 63 g ai/ha): 100
phytotoxicity rating ABUTH ([20]; 250 g ai/ha): 100
phytotoxicity rating CORN (crop damage) ([21]; 63 g ai/ha): 5
phytotoxicity rating CORN (crop damage) ([21]; 250 g ai/ha): 20
phytotoxicity rating RICE (crop damage) ([22]; 63 g ai/ha): 15
phytotoxicity rating RICE (crop damage) ([22]; 250 g ai/ha): 45

COc1c(Cl)cc(F)c(-n2c(=O)cc(C(F)(F)F)n(C)c2=O)c1NC(=O)c1c(C)cccc1C [2-124]
phytotoxicity rating AMARE ([1]; 63 g ai/ha): 40
phytotoxicity rating AMARE ([1]; 250 g ai/ha): 100
phytotoxicity rating ECHCG ([2]; 63 g ai/ha): 0
phytotoxicity rating ECHCG ([2]; 250 g ai/ha): 0
phytotoxicity rating SETVI ([3]; 63 g ai/ha): 0
phytotoxicity rating SETVI ([3]; 250 g ai/ha): 10
phytotoxicity rating IPOHE ([4]; 63 g ai/ha): 0
phytotoxicity rating IPOHE ([4]; 250 g ai/ha): 20
phytotoxicity rating SORHA ([5]; 63 g ai/ha): 0
phytotoxicity rating SORHA ([5]; 250 g ai/ha): 0
phytotoxicity rating CHEAL ([6]; 63 g ai/ha): 20
phytotoxicity rating CHEAL ([6]; 250 g ai/ha): 80
phytotoxicity rating DIGSA ([7]; 63 g ai/ha): 0
phytotoxicity rating DIGSA ([7]; 250 g ai/ha): 0
phytotoxicity rating CASOB ([8]; 63 g ai/ha): 0
phytotoxicity rating CASOB ([8]; 250 g ai/ha): 20
phytotoxicity rating ABUTH ([9]; 63 g ai/ha): 0
phytotoxicity rating ABUTH ([9]; 250 g ai/ha): 80
phytotoxicity rating CORN (crop damage) ([10]; 63 g ai/ha): 0
phytotoxicity rating CORN (crop damage) ([10]; 250 g ai/ha): 0
phytotoxicity rating RICE (crop damage) ([11]; 63 g ai/ha): 0
phytotoxicity rating RICE (crop damage) ([11]; 250 g ai/ha): 10
ECHCG phytotoxicity rating ([12]; 63 g ai/ha): 0
ECHCG phytotoxicity rating ([12]; 250 g ai/ha): 0
SETVI phytotoxicity rating ([13]; 63 g ai/ha): 0
SETVI phytotoxicity rating ([13]; 250 g ai/ha): 0
IPOHE phytotoxicity rating ([14]; 63 g ai/ha): 20
IPOHE phytotoxicity rating ([14]; 250 g ai/ha): 30
SORHA phytotoxicity rating ([15]; 63 g ai/ha): 0
SORHA phytotoxicity rating ([15]; 250 g ai/ha): 0
CHEAL phytotoxicity rating ([16]; 63 g ai/ha): 30
CHEAL phytotoxicity rating ([16]; 250 g ai/ha): 50
DIGSA phytotoxicity rating ([17]; 63 g ai/ha): 0
DIGSA phytotoxicity rating ([17]; 250 g ai/ha): 0
AMARE phytotoxicity rating ([18]; 63 g ai/ha, rating scale 0-100): 30
AMARE phytotoxicity rating [18, 23]: 90
CASOB phytotoxicity rating ([19]; 63 g ai/ha): 0
CASOB phytotoxicity rating ([19]; 250 g ai/ha): 20
ABUTH phytotoxicity rating ([20]; 63 g ai/ha): 40
ABUTH phytotoxicity rating ([20]; 250 g ai/ha): 95
CORN phytotoxicity rating (crop damage) ([21]; 63 g ai/ha): 0
CORN phytotoxicity rating (crop damage) ([21]; 250 g ai/ha): 5
RICE phytotoxicity rating (crop damage) ([22]; 63 g ai/ha): 0
RICE phytotoxicity rating (crop damage) ([22]; 250 g ai/ha): 0
